Measurements from US20160095802A1, “COMBINATION OF PETROSELINIC ACID AND ZINC FOR ORAL ADMINISTRATION FOR HAIR AGING CONTROL” (NUTRICOS TECHNOLOGIES, priority 2013, published 2016).

Test system: Lipoxin A4 production in human mononuclear cells
Experiment: Lipoxin A4 production in stimulated human mononuclear blood cells in vitro (LC-MS of supernatants)
Assay type: cell-based
Settings: coriander oil 0.25 mg/ml, zinc gluconate 0.005 mg/ml; 30 min pre-incubation, then 2 hours stimulation with phorbol myristate 0.05 μM + calcium ionophore 1 μM + DHA/EPA 1 μg/mL each; triplicates
Protocol: Mononuclear blood cells are cultured under 5% CO2 and at 37° C. in a serum-free medium for macrophages (SFM Macrophage; Invitrogen 12065074) for 24 hours. After this step, the medium is replaced with the same fresh test medium also containing the active agents at the various doses for 30 minutes in the presence of the various products to be evaluated (coriander oil 0.25 mg/ml, zinc gluconate ([…]. The inflammatory response was then triggered in the presence of phorbol myristate (0.05 μM) and calcium ionophore (1 μM) and a lipid substrate mixture composed of docosahexaenoic acid (DHA—1 μg/mL) and eicosapentaenoic acid (EPA—1 μg/mL).
The supernatants were then collected after 2 hours of stimulation and frozen at −80° C. before preparation for analysis by mass spectrometry.
Experimental triplicates (three wells) were prepared per experimental condition. Into each culture plate was placed a control corresponding to cells stimulated with the PMA/A23187 mixture and/or with addition of the equimolar mixture of fatty acids.
The thawed supernatants were concentrated by solid-phase extraction (SPE) and taken up in methanol before spectrometric analysis. The analytical method used consists in separating the various analytes by high-pressure liquid chromatography as a function of their retention time and in quantifying them by mass spectrometry. […]

Zinc gluconate
Level of lipoxin A4 production (% modulation relative to the control): −5%
